Read-outs that look alike come from different tables or passages of the source.
Experiments:
[1] = format: in vivo, broiler chickens
[2] = Population pharmacokinetic analysis; format: in vivo, broiler chickens; conditions: for AUC: geometric mean
[3] = format: in vivo, broiler chickens; conditions: single ENR administration (i.v. 10 mg/kg or p.o. 20 mg/kg) with or without CsA or AC
[4] = cited from earlier work
[5] = population fixed effect, p.o. administration
[6] = oral administration, same dose (20 mg/kg), ref Xiao et al., 2018

Q: With `CCN1CCN(c2cc3c(cc2F)c(=O)c(C(=O)O)cn3C2CC2)CC1` [Enrofloxacin, enrofloxacin] as the compound, how does the AUC ([1]; Ross hybrid (Cornish × Plymouth Rock), plasma, po, 20 mg/kg, AUC, enrofloxacin in plasma, enrofloxacin p.o. 20 mg/kg + cyclosporine A p.o. 50 mg/kg, geometric mean (min–max)) read?
A: Its AUC is 40400 ng·h/mL.

Q: And the Cmax ([1]; Ross hybrid (Cornish × Plymouth Rock), plasma, po, 20 mg/kg, Cmax, enrofloxacin in plasma, enrofloxacin p.o. 20 mg/kg + cyclosporine A p.o. 50 mg/kg, geometric mean (min–max))?
A: The Cmax was 5620 ng/mL.

Q: And the Tmax ([1]; Ross hybrid (Cornish × Plymouth Rock), plasma, po, 20 mg/kg, Tmax, enrofloxacin in plasma, enrofloxacin p.o. 20 mg/kg + cyclosporine A p.o. 50 mg/kg, geometric mean (min–max))?
A: The Tmax was 1.35 h.

Q: What about the “increase of AUC with CsA co-administration” value ([1]; enrofloxacin p.o. 20 mg/kg + CsA p.o. versus enrofloxacin p.o. alone) of the same compound?
A: The value was “approx. 20%”.

Q: What about the AUC ([2]; Ross hybrid (Cornish × Plymouth Rock), plasma, iv, 10 mg/kg, AUCi.v. – activated charcoal, enrofloxacin i.v. 10 mg/kg + activated charcoal p.o. 1 g/kg) of the same compound?
A: Its AUC is 13300 ng·h/mL.

Q: And the AUC ([2]; Ross hybrid (Cornish × Plymouth Rock), plasma, iv, 10 mg/kg, AUCi.v. – cyclosporine A, enrofloxacin i.v. 10 mg/kg + cyclosporine A p.o. 50 mg/kg)?
A: The AUC was 16200 ng·h/mL.

Q: What about the bioavailability ([2]; Ross hybrid (Cornish × Plymouth Rock), plasma, po, 20 mg/kg) of the same compound?
A: Its bioavailability is 100%.

Q: And the AUC ([2]; Ross hybrid (Cornish × Plymouth Rock), plasma, po, 20 mg/kg, AUCp.o. – control, enrofloxacin p.o. 20 mg/kg alone)?
A: The AUC was 31200 ng·h/mL.

Q: What about the AUC ([2]; Ross hybrid (Cornish × Plymouth Rock), plasma, po, 20 mg/kg, AUCp.o. – cyclosporine A, enrofloxacin p.o. 20 mg/kg + cyclosporine A p.o. 50 mg/kg) of the same compound?
A: The AUC was 37400 ng·h/mL.

Q: And the “lag time (time to pass the crop and the stomach to reach the absorption site)” value ([2]; p.o. administration, on average)?
A: The value was 3.24 min.

Q: What about the “βCl BW (covariate effect of body weight on clearance)” value ([2]; population fixed effect, log-normalized BW) of the same compound?
A: Its value is 0.77.

Q: And the “tvTlag (typical value of lag time)” value [2, 5]?
A: Its value is 0.054 h.

Q: What about the “tvka (typical value of absorption rate constant)” value [2, 5] of the same compound?
A: The value was 1.26 h⁻¹.

Q: What about the adverse effects [3] of the same compound?
A: The adverse effects was “No adverse effects were observed”.

Q: And the “oral bioavailability change with verapamil co-administration” value ([4]; co-administered with the P-gp inhibitor verapamil, ref Guo et al., 2013)?
A: Its value is “nearly doubled”.

Q: What about the AUC ([4]; i.v. administration at 10 mg/kg, ref Atef et al., 2020) of the same compound?
A: Its AUC is 15200 ± 1080 ng·h/mL.

Q: What about the AUC0-24h [4, 6] of the same compound?
A: Its AUC0-24h is 30.07 ± 4.64 µg/h/mL.

Q: What about the Cmax [4, 6] of the same compound?
A: Its Cmax is 2860 ± 520 ng/mL.

From publication PMC9646970 (Poultry Science, 2022)
